Source: PubChem BioAssay (NCI)
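Assay format: 96-well plates, 48-hour exposure. At the TGI there is no net growth.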

What was measured:
Assay in all cases: growth of human tumour cells (NCI), 48 h
OVCAR-3 ovarian = system: OVCAR-3 ovarian
NCI-H23 lung = system: NCI-H23 lung
T-47D breast = system: T-47D breast
ACHN renal = system: ACHN renal
M14 melanoma = system: M14 melanoma
A549 NSCLC = system: A549 NSCLC
CAKI-1 renal = system: CAKI-1 renal
HL-60(TB) leukemia = system: HL-60(TB) leukemia
MCF7 breast = system: MCF7 breast
HOP-92 NSCLC = system: HOP-92 NSCLC
TK-10 renal = system: TK-10 renal
A498 renal = system: A498 renal
MOLT-4 leukemia = system: MOLT-4 leukemia
OVCAR-8 ovarian = system: OVCAR-8 ovarian
SF-268 CNS = system: SF-268 CNS
SNB-75 CNS = system: SNB-75 CNS
HOP-62 NSCLC = system: HOP-62 NSCLC
PC-3 prostate = system: PC-3 prostate
MDA-N = system: MDA-N
SN12C renal = system: SN12C renal
SK-MEL-5 melanoma = system: SK-MEL-5 melanoma
HCT-116 colon = system: HCT-116 colon
CCRF-CEM leukemia = system: CCRF-CEM leukemia
SK-MEL-2 melanoma = system: SK-MEL-2 melanoma
OVCAR-5 ovarian = system: OVCAR-5 ovarian
U251 CNS = system: U251 CNS
HCC-2998 colon = system: HCC-2998 colon
HT29 colon = system: HT29 colon
EKVX NSCLC = system: EKVX NSCLC
SF-295 CNS = system: SF-295 CNS
UO-31 renal = system: UO-31 renal
RPMI-8226 leukemia = system: RPMI-8226 leukemia
HS 578T breast = system: HS 578T breast
NCI/ADR-RES ovarian = system: NCI/ADR-RES ovarian
DU-145 prostate = system: DU-145 prostate
786-0 renal = system: 786-0 renal
HCT-15 colon = system: HCT-15 colon
SNB-19 CNS = system: SNB-19 CNS
LOX IMVI melanoma = system: LOX IMVI melanoma
SW-620 colon = system: SW-620 colon
SF-539 CNS = system: SF-539 CNS
IGROV1 ovarian = system: IGROV1 ovarian
MALME-3M melanoma = system: MALME-3M melanoma
NCI-H522 lung = system: NCI-H522 lung
OVCAR-4 ovarian = system: OVCAR-4 ovarian
KM12 colon = system: KM12 colon
MDA-MB-435 = system: MDA-MB-435
COLO 205 colon = system: COLO 205 colon
UACC-257 melanoma = system: UACC-257 melanoma
SK-MEL-28 melanoma = system: SK-MEL-28 melanoma
MDA-MB-231 breast = system: MDA-MB-231 breast
NCI-H460 lung = system: NCI-H460 lung
K-562 leukemia = system: K-562 leukemia
SK-OV-3 ovarian = system: SK-OV-3 ovarian
SR leukemia = system: SR leukemia
UACC-62 melanoma = system: UACC-62 melanoma
RXF 393 renal = system: RXF 393 renal
BT-549 breast = system: BT-549 breast
NCI-H226 lung = system: NCI-H226 lung

Measured: TGI

C=CCOc1ccc(C2c3c([nH][nH]c3=O)CC(O)(OCC)C2C(=O)OCC)cc1OC (configuration not stated)
not listed: K-562 leukemia | SK-OV-3 ovarian | SR leukemia | UACC-62 melanoma | RXF 393 renal | BT-549 breast | NCI-H226 lung
> 100 µM: all other assays above

CCOC(=O)C(=[N+]=[N-])C(=O)C[N+]12CCN(CC1)CC2
not listed: HL-60(TB) leukemia | MCF7 breast | EKVX NSCLC | SF-539 CNS
> 100 µM: all other assays above

COc1c(-c2cc(C)c(Cl)c(=O)[nH]2)c(O)c(OC)c2occc12
not listed: A498 renal | CCRF-CEM leukemia | HS 578T breast | BT-549 breast
> 100 µM: all other assays above
